Measurements: paper PMC9101373, “Design of DNA Intercalators Based on 4-Carboranyl-1,8-Naphthalimides: Investigation of Their DNA-Binding Ability and Anticancer Activity” (International Journal of Molecular Sciences, 2022)

What was measured:
HepG2 cells [1] = test: Apoptosis/necrosis assay by flow cytometry (Annexin V); type: cell-based, human; conditions: HepG2, 24 h at total IC50, Annexin V
Procedure: To investigate whether compounds 54–61 induced apoptosis in HepG2 cells, we incubated the cells with these compounds for 24 h and performed a flow cytometry analysis. The concentration chosen for each compound corresponded to their total IC50 values. After incubation, the cells were stained with Annexin V Alexa Fluor 647 conjugate, which enabled detection of the externalization of phosphatidylserine, one of the earliest indicators of apoptosis. To eliminate the influence of the solvent (DMSO), we also analyzed its ability to induce apoptosis in a volume that corresponded to the highest concentration. […] The other compounds, 57, 58, 59, and 61, could not induce as high apoptosis as those mentioned above. Approximately one-third of cells targeted apoptotic pathways (33.4%, 39.1%, 23.1%, and 37.1%, respectively) when treated with these compounds (Figure 6).
HepG2 cells (3.85 × 10^5) were seeded onto 6-well plates, cultured in supplemented EMEM medium (Corning®) at 37 °C and 5% CO2 saturation, and incubated until 70–80% cell confluency was achieved. Subsequently, the cells were treated for 24 h, with the tested compounds 54–61 were added at a concentration corresponding to their total IC50 values. Next, the cells were detached with trypsin (Corning®) and washed twice with DPBS (1 mL) (Thermo Fisher Scientific, Waltham, MA, USA). In the meantime, annexin-binding buffer (10 mM HEPES, 140 mM NaCl, and 2.5 mM CaCl2, pH 7.4) was prepared. The cells were resuspended in annexin-binding buffer (100 μL per assay) and stained with Alexa Fluor™ 680 annexin V conjugate (ex/em: ~679/702 nm, Thermo Fisher Scientific, Waltham, MA, USA) according to the manufacturer’s protocol (5 μL of the annexin V conjugate was added to each 100 μL of cell suspension) and incubated for 15 min at RT, in the dark. After the incubation period, annexin-binding buffer (400 μL) was added, mixed gently, and the samples were kept on ice during the analysis. The cells were analyzed immediately after staining with […] by Accuri C6 flow cytometer (Becton Dickinson, Franklin Lake, NJ, USA) with excitation at 635 nm. The rate of apoptosis was evaluated immediately by FlowJo software.
Figure 6 Effect of compounds 54 (5.5 µM), 55 (3.4 µM), 56 (12 µM), 57 (3.1 µM), 58 (3.9 µM), 59 (5.4 µM), 60 (31 µM), and 61 (4.8 µM) on cell death in HepG2 cells. The cells were incubated with the tested compounds for 24 h at the concentration corresponding to the total IC50 values. Quantitative flow cytometry analysis was performed to evaluate apoptosis/necrosis induced by compounds after 24 h of treatment. Data are presented as the mean ± SD of three independent experiments. Statistical significance is indicated with asterisks: (ns) p > 0.05, (**) p < 0.01, (***) p < 0.001, and (****) p < 0.0001.

HepG2 cells [2] = test: In vitro cytotoxic activity, MTT assay; type: cell-based, human; conditions: 24 h treatment, read-out: IC50, compound concentration required to inhibit cell growth by 50%
Procedure: The obtained 1,8-naphthalimide–carborane conjugates were investigated for their in vitro antitumor activity by examining their cytotoxic effects using the MTT tetrazolium dye assay against the human cancer cell line HepG2 established from hepatocellular carcinoma. IC50 refers to the drug concentration (µM) required to inhibit cell growth by 50%.
The cytotoxic properties of the synthesized compounds were evaluated using the human hepatocellular carcinoma cell line HepG2 established from hepatocellular carcinoma. The HepG2 cell line was purchased from ECACC (Salisbury, UK). Cells were grown in EMEM medium (Corning®) supplemented with 10% heat-inactivated fetal bovine serum (FBS) (Corning®) and antibiotics (Corning®), at 37 °C in a 5% CO2 atmosphere. Upon reaching 80–90% confluency, cells were detached with the trypsin (Corning®) and transferred into 96-well microplates at a density of 12 × 10^3. After overnight incubation at 37 °C in a humidified atmosphere containing 5% CO2, the cells were treated for the next 24 h with compounds. The stock solution of each compound was prepared in DMSO at 10 mM. The cytotoxicity was evaluated by the MTT assay. […] Subsequently, the medium was aspirated and replaced with 3-(4,5-dimethylthiazol-2-yl)-2,5-diphenyltetrazolium bromide (MTT) dye solution (50 µL, 0.5 mg/mL). After 3 h incubation, the resulting MTT formazan crystals were dissolved in DMSO (100 µL). To ensure the complete dissolution of formazan, the plates were shaken on an orbital microplate shaker at 1000 rpm for 15 min (Thermoshaker NeoLab 7–0055, Bionovo, Legnica, Poland). The optical density of each well was then measured on a VICTOR Nivo multimode plate reader at a wavelength of 570 nm. Each experiment consisted of 6 replications of each concentration, and each experiment was repeated three times independently. The results were calculated as a percentage of control group viability. The IC50 values were determined using a non-linear regression from the plot of % viability against log dose of compounds by using GraphPad Prism 6.0 software (GraphPad, San Diego, CA, USA).

Substance | apoptosis rate, apoptotic cells (HepG2 cells [1]) [%] | IC50 (HepG2 cells [2]) [µM]
N-[2-(Dimethylamino)ethyl]-4-[(2-(2-(1,2-dicarba-closo-dodecaborane-1-yl)-ethylamino)ethyl)amino]-1,8-naphthalimide [Compound 54] | 44.3 | 5.49 ± 0.38
N-[2-(Dimethylamino)ethyl]-4-[(2-(2-(1,7-dicarba-closo-dodecaborane-1-yl)-ethylamino)ethyl)amino]-1,8-naphthalimide [Compound 55] | 48.2 | 3.43 ± 0.28
N-[2-(Dimethylamino)ethyl]-4-[(6-(2-(1,2-dicarba-closo-dodecaborane-1-yl)-ethylamino)hexyl)amino]-1,8-naphthalimide [Compound 58] | 39.1 | 3.87 ± 1.03
N-[2-(Dimethylamino)ethyl]-4-[(6-(2-(1,7-dicarba-closo-dodecaborane-1-yl)-ethylamino)hexyl)amino]-1,8-naphthalimide [Compound 59] | 23.1 | 5.35 ± 1.36
N-[2-(Pyrrolidin-1-yl)ethyl]-4-[(2-(2-(1,2-dicarba-closo-dodecaborane-1-yl)-ethylamino)ethyl)amino]-1,8-naphthalimide [Compound 56] | 77.4 | 12.1 ± 1.03
N-[2-(Pyrrolidin-1-yl)ethyl]-4-[(2-(2-(1,7-dicarba-closo-dodecaborane-1-yl)-ethylamino)ethyl)amino]-1,8-naphthalimide [Compound 57] | 33.4 | 3.12 ± 0.04
N-[2-N-Pyrrolidinyl)ethyl]-4-[(6-(2-(1,2-dicarba-closo-dodecaborane-1-yl)-ethylamino)hexyl)amino]-1,8-naphthalimide [Compound 60] | 46.9 | 30.9 ± 2.66
N-[2-N-Pyrrolidinyl)ethyl]-4-[(6-(2-(1,7-dicarba-closo-dodecaborane-1-yl)-ethylamino)hexyl)amino]-1,8-naphthalimide [Compound 61] | 37.1 | 4.79 ± 0.06
